Measurements taken from patent US20250344734A1, “UNSATURATED FATTY ACIDS AND THEIR USE TO MODIFY TASTE” (Firmenich Incorporated, priority 2022, published 2025).

What was measured:
Format in all cases: cell-based
Conditions in all cases: unsaturated fatty acid concentration of 200 µM, cells stimulated with known bitter agonist
[1] = target: T1, T2R54 (TAS2R39 (Homo sapiens, UniProt P59534)); test: FLIPR calcium assay, block of bitter agonist response, T2R54
T1 construct: expressed in transfected cells; host or cells: cells expressing a promiscuous G protein (e.g., G16g44)
T1 sequence (P59534 1-338): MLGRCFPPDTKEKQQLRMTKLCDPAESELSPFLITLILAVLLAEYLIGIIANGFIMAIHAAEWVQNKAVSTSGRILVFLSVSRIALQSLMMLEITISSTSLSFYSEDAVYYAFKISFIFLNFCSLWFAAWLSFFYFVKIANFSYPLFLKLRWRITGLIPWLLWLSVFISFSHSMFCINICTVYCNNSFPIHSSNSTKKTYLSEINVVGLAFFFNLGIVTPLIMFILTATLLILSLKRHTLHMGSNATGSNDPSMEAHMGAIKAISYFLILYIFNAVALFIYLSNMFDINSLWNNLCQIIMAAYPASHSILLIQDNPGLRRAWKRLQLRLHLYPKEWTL
Protocol: (§1) Cells expressing a promiscuous […] (e.g., G16g44) were transfected with vectors encoding 18 functional bitter receptor cDNAs, with one receptor per transfection. The cells were transfected directly in 384-well format high-density plates and incubated for 28 hours. Later, cells were loaded with the Ca-specific dye Fluo4-AM. After an incubation of 60 minutes, excess dye is washed off, and cells are stimulated with a known bitter agonist for each receptor and various unsaturated fatty acids. Changes in intracellular fluorescence are recorded using a FLIPR instrument. Bitter antagonists and corresponding receptors are identified based on percentage inhibition of agonist's activity on a given receptor.
(§2) The above protocol was carried out using 16 different unsaturated fatty acids. A particular T2R receptor was identified as being antagonized by a particular unsaturated fatty acid if it triggered a >25% block of agonist's cellular response at 200 μM concentration of unsaturated fatty acid. […] Table 2 indicates the sixteen (16) compounds tested by their compound number from Table 1 above. The 18 bitter taste receptors screened are the human bitter taste receptors we named. T2R01 (TAS2R01), T2R03 (TAS2R03), T2R04 (TAS2R04), T2R07 (TAS2R07), T2R08 (TAS2R08), T2R09 (TAS2R09), T2R10 (TAS2R10), T2R13 (TAS2R13), T2R14 (TAS2R14), T2R16 (TAS2R16), T2R54 (TAS2R39, T2R61 (TAS2R43), T2R63 (TA2R20), T2R64 (TAS2R31), T2R65 (TAS2R19), T2R67 (TAS2R50), T2R71 (TAS2R41), and T2R75 (TAS2R46). The corresponding IUPHAR nomenclature for each receptor is given in parenthesis. In Table 2, these receptors are identified by the last two digits. For example, T2R01 is indicated as 01. Table 2 reports the percentage block of cellular response over baseline at an unsaturated fatty acid concentration of 200 µM.

[2] = target: T2, T2R03 (TAS2R03) (Homo sapiens, UniProt Q9NYW6); test: FLIPR calcium assay, block of bitter agonist response, T2R03
T2 construct: expressed in transfected cells; host or cells: cells expressing a promiscuous G protein (e.g., G16g44)
T2 sequence (Q9NYW6 1-316): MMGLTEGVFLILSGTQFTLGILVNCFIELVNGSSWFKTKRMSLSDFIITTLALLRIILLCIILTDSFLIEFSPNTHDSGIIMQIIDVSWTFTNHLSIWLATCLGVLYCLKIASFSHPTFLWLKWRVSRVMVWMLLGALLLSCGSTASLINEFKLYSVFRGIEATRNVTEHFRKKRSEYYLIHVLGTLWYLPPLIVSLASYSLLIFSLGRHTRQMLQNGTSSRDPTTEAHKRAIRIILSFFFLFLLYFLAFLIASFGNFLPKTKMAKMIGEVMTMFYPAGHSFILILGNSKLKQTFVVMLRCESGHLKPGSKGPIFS
Protocol: as §1
(§3) The above protocol was carried out using 16 different unsaturated fatty acids. A particular T2R receptor was identified as being antagonized by a particular unsaturated fatty acid if it triggered a >25% block of agonist's cellular response at 200 μM concentration of unsaturated fatty acid. […] Table 2 indicates the sixteen (16) compounds tested by their compound number from Table 1 above. The 18 bitter taste receptors screened are the human bitter taste receptors we named. […]

[3] = target: T3, T2R65 (TAS2R19) (Homo sapiens, UniProt P59542); test: FLIPR calcium assay, block of bitter agonist response, T2R65
T3 construct: expressed in transfected cells; host or cells: cells expressing a promiscuous G protein (e.g., G16g44)
T3 sequence (P59542 1-299): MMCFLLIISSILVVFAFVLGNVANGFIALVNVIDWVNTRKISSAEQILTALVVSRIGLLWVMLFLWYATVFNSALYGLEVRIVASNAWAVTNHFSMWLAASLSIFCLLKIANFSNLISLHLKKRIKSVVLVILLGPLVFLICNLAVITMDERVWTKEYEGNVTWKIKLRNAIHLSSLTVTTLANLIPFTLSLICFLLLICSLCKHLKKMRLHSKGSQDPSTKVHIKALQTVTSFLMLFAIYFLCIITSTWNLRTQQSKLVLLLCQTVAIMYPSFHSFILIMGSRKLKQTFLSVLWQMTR
Protocol: as §1, §3

[4] = target: T4, T2R04 (TAS2R04) (Homo sapiens, UniProt Q9NYW5); test: FLIPR calcium assay, block of bitter agonist response, T2R04
T4 construct: expressed in transfected cells; host or cells: cells expressing a promiscuous G protein (e.g., G16g44)
T4 sequence (Q9NYW5 1-299): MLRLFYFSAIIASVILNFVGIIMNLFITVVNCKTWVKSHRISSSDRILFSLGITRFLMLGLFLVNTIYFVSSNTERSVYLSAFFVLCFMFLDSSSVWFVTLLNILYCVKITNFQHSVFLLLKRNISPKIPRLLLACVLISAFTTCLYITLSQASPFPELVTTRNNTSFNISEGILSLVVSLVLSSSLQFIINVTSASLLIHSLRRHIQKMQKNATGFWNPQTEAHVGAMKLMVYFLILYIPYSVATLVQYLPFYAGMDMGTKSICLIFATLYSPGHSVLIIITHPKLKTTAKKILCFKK
Protocol: as §1, §3

[5] = target: T5, T2R75 (TAS2R46) (Homo sapiens, UniProt P59540); test: FLIPR calcium assay, block of bitter agonist response, T2R75
T5 construct: expressed in transfected cells; host or cells: cells expressing a promiscuous G protein (e.g., G16g44)
T5 sequence (P59540 1-309): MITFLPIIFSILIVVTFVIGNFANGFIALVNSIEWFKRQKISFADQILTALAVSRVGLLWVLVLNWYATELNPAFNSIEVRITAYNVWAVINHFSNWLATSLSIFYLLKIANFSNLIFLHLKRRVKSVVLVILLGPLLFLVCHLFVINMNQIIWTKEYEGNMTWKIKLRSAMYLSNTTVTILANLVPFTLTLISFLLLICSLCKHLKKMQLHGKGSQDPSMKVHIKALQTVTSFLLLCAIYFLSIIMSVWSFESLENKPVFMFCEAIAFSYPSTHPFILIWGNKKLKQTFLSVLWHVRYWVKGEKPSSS
Protocol: as §1, §2

CC(C)=CCC/C(C)=C/C(=O)O [Compound 129]
percentage block of cellular response over baseline, 54 [1]: 90%
percentage block of cellular response over baseline, 03 [2]: >45%
percentage block of cellular response over baseline, 65 [3]: >35%
percentage block of cellular response over baseline, 04 [4]: >90%
percentage block of cellular response over baseline, 75 [5]: 50%
